# Legend:
# Cavia porcellus = species on record: Cavia porcellus; assay: Calcium channel antagonist activity against carbachol-induced contractile response in guinea pig ileal longitudinal smooth muscle; assay type: functional
# Mus musculus [1] = assay: Anticonvulsant activity in the subcutaneous metrazole (scMet) screen test expressed as the number of animals protected to the number of animals tested; scMet at 100 mg/kg after 0.5 hrs; (1/1); assay type: functional
# Mus musculus [2] = assay: Anticonvulsant activity in the maximal electroshock (MES) screen test expressed as the number of animals protected to the number of animals tested; MES at 100 mg/kg after 0.5 hrs; (2/2); assay type: functional
# Mus musculus [3] = assay: Anticonvulsant activity in the subcutaneous metrazole (scMet) screen test expressed as the number of animals protected to the number of animals tested; scMet at 100 mg/kg after 4 hrs; (0/1); assay type: functional
# [4] = Partition coefficient; Kp = concentration of test compound in n-octanol/concentration of the test compound in phosphate buffer (pH 7.4); assay type: physicochemical
# Mus musculus [5] = assay: Anticonvulsant activity in the maximal electroshock (MES) screen test expressed as the number of animals protected the number of animals tested; MES at 300 mg/kg after 4 hrs; (1/1); assay type: functional
# Mus musculus [6] = assay: Anticonvulsant activity in the subcutaneous metrazole (scMet) screen test expressed as the number of animals protected the number of animals tested; scMet at 100 mg/kg after 4 hrs; (0/1); assay type: functional
# Mus musculus [7] = assay: Anticonvulsant activity in the maximal electroshock (MES) screen test expressed as the number of animals protected the number of animals tested; MES at 100 mg/kg after 4 hrs; (1/3); assay type: functional
# Mus musculus [8] = assay: Anticonvulsant activity in the subcutaneous metrazole (scMet) screen test expressed as the number of animals protected the number of animals tested; scMet at 100 mg/kg after 0.5 hrs; (0/1); assay type: functional
# Mus musculus [9] = assay: Anticonvulsant activity in the subcutaneous metrazole (scMet) screen test expressed as the number of animals protected the number of animals tested; scMet at 300 mg/kg after 4 hrs; (0/1); assay type: functional
# Mus musculus [10] = assay: Anticonvulsant activity in the maximal electroshock (MES) screen test expressed as the number of animals protected the number of animals tested; MES at 300 mg/kg after 0.5 hrs; (0/1); assay type: functional
# Mus musculus [11] = assay: Anticonvulsant activity in the subcutaneous metrazole (scMet) screen test expressed as the number of animals protected the number of animals tested; scMet at 300 mg/kg after 0.5 hrs; (0/1); assay type: functional
# Mus musculus [12] = assay: Anticonvulsant activity in the maximal electroshock (MES) screen test expressed as the number of animals protected the number of animals tested; MES at 100 mg/kg after 0.5 hrs; (0/3); assay type: functional
# Mus musculus [13] = assay: Anticonvulsant activity in the maximal electroshock (MES) screen test expressed as the number of animals protected / the number of animals tested; MES at 100 mg/kg after 0.5 hrs; (2/3); assay type: functional
# Mus musculus [14] = assay: Anticonvulsant activity in the maximal electroshock (MES) screen test expressed as the number of animals protected / the number of animals tested; MES at 300 mg/kg after 0.5 hrs; (1/1); assay type: functional
# Mus musculus [15] = assay: Anticonvulsant activity in the maximal electroshock (MES) screen test expressed as the number of animals protected / the number of animals tested; MES at 100 mg/kg after 4 hrs; (2/3); assay type: functional
# Mus musculus [16] = assay: Anticonvulsant activity in the subcutaneous metrazole (scMet) screen test expressed as the number of animals protected / the number of animals tested; scMet at 100 mg/kg after 4 hrs; (0/1); assay type: functional
# Mus musculus [17] = assay: Anticonvulsant activity in the subcutaneous metrazole (scMet) screen test expressed as the number of animals protected/ the number of animals tested; scMet at 300 mg/kg after 0.5 hrs; (0/1); assay type: functional
# Mus musculus [18] = assay: Anticonvulsant activity in the subcutaneous metrazole (scMet) screen test expressed as the number of animals protected / the number of animals tested; scMet at 100 mg/kg after 0.5 hrs; (0/1); assay type: functional
# Mus musculus [19] = assay: Anticonvulsant activity in the subcutaneous metrazole (scMet) screen test expressed as the number of animals protected to the number of animals tested; scMet at 300 mg/kg; (0/1); assay type: functional
# Mus musculus [20] = assay: Anticonvulsant activity in the subcutaneous metrazole (scMet) screen test expressed as the number of animals protected to the number of animals tested; scMet at 100 mg/kg after 0.5 hrs; (0/1); assay type: functional
# Mus musculus [21] = assay: Anticonvulsant activity in the maximal electroshock (MES) screen test expressed as the number of animals protected to the number of animals tested; MES at 300 mg/kg after 0.5 hrs; (0/1); assay type: functional
# Mus musculus [22] = assay: Anticonvulsant activity in the maximal electroshock (MES) screen test expressed as the number of animals protected to the number of animals tested; MES at 300 mg/kg after 4 hrs; (1/1); assay type: functional
# Mus musculus [23] = assay: Anticonvulsant activity in the maximal electroshock (MES) screen test expressed as the number of animals protected to the number of animals tested; MES at 100 mg/kg after 0.5 hrs; (0/3); assay type: functional
# Mus musculus [24] = assay: Anticonvulsant activity in the maximal electroshock (MES) screen test expressed as the number of animals protected to the number of animals tested; MES at 100 mg/kg after 4 hrs; (1/3); assay type: functional
structure (smiles),measurement,setting,value
CO/C(O)=C1\C(C)=NC(C)=C(C(=O)OCCO)C1c1cccc(Cl)c1Cl (stereo unspecified),IC50,Cavia porcellus,30.4 nM
same,No. of animals protected / no animals tested,Mus musculus [1],1
same,No. of animals protected / no animals tested,Mus musculus [2],2
same,No. of animals protected / no animals tested,Mus musculus [3],0
same,Kp,[4],236
CO/C(O)=C1\C(C)=NC(C)=C(C(=O)OCCOC(=O)C2=CN(C)C=CC2)C1c1cccc(Cl)c1Cl (stereo unspecified),No. of animals protected / no animals tested,Mus musculus [5],1
same,No. of animals protected / no animals tested,Mus musculus [6],0
same,IC50,Cavia porcellus,31 nM
same,No. of animals protected / no animals tested,Mus musculus [7],1
same,No. of animals protected / no animals tested,Mus musculus [8],0
same,No. of animals protected / no animals tested,Mus musculus [9],0
same,No. of animals protected / no animals tested,Mus musculus [10],0
same,No. of animals protected / no animals tested,Mus musculus [11],0
same,Kp,[4],366
same,No. of animals protected / no animals tested,Mus musculus [12],0
CCOC(=O)C1=C(C)NC(C)=C(C(=O)OC)C1c1cccc(Cl)c1Cl (stereo unspecified) [FELODIPINE],No. of animals protected / no animals tested,Mus musculus [13],2
same,No. of animals protected / no animals tested,Mus musculus [14],1
same,No. of animals protected / no animals tested,Mus musculus [15],2
same,No. of animals protected / no animals tested,Mus musculus [16],0
same,No. of animals protected / no animals tested,Mus musculus [17],0
same,No. of animals protected / no animals tested,Mus musculus [18],0
same,Kp,[4],442
COCCOC(=O)C1=C(C)NC(C)=C(C(=O)OC(C)C)C1c1cccc([N+](=O)[O-])c1 (stereo unspecified) [NIMODIPINE],No. of animals protected / no animals tested,Mus musculus [19],0 300mg kg-1
same,IC50,Cavia porcellus,14.9 nM
same,No. of animals protected / no animals tested,Mus musculus [20],0 100mg kg-1
same,No. of animals protected / no animals tested,Mus musculus [21],0 300mg kg-1
same,No. of animals protected / no animals tested,Mus musculus [22],1 300mg kg-1
same,No. of animals protected / no animals tested,Mus musculus [23],0 100mg kg-1
same,No. of animals protected / no animals tested,Mus musculus [3],0 100mg kg-1
same,No. of animals protected / no animals tested,Mus musculus [24],1 100mg kg-1
same,Kp,[4],187

# Reference: ChEMBL document CHEMBL1129028 (J Med Chem, 1996)
